Laboratory results reported in patent US11992545B2, “Aqueous cosmetic compositions containing pelargonic acid esters” (Novamont S.p.A., priority 2015, dated 2024).

Assays:
[1] = Pigments dispersion: wet point and flow point; format: physicochemical; settings: for Fp (flow point), amount of ester oil / Wp (wet point), amount of ester oil: grams per 100 g of pigment
Excerpt: Black Iron Oxide particles (C177499, commercially available as YPC335200 from Yipin) were dispersed in each of the ester oils of the present invention and in ester oil commonly used as cosmetic ingredients. Each sample of powder particles was wetted by the dropwise addition of one ester oil and then vigorously blended using a spatula until the wet point and the flow point were reached.
The wet point is defined as the minimum volume of dispersant solution to produce a soft coherent mass; the further minimum addition of dispersant solution to produce flow or falling off of the homogeneous mass from the vertical blade of a horizontally held spatula determines the flow point.
The amounts of dispersant solution (i.e. ester oil) needed to reach the wet point (Wp) and the flow point (Fp) were recorded and reported in the table below, expressed in grams per 100 g of pigment.

[2] = UV filters dispersion (dispersibility of solid UV filter in ester oils); format: physicochemical; design: key to Filters dispersion t0, 1% / Filters dispersion t0, 10% / Filters dispersion t24, 1% / Filters dispersion t24, 10%: D=homogeneous dispersion; S=sediment deposit; settings: for Filters dispersion t0, 1%: 1% TiO2, 0 hours at 25° C.; for Filters dispersion t24, 1%: 1% TiO2, 24 hours at 25° C.; for Filters dispersion t0, 10%: 10% TiO2, 0 hours at 25° C.; for Filters dispersion t24, 10%: 10% TiO2, 24 hours at 25° C.; for dispersion of Titania compared with reference solvents: in words
Method: The dispersibility of a solid UV filter in different ester oils was tested using Titania (TiO2, commercially available as Titanio Biossido Anatasio from A.C.E.F.). Various ratios of filter/ester (1% and 10% TiO2) were prepared under stirring at 70° C. for 30 minutes. The dispersions were then observed after a storage period of 0 hours (t0) and 24 hours (t24) at ambient temperature (25° C.) to check for the formation of any sediment deposit. Results for each ester are shown in the table below (D=homogeneous dispersion; S=sediment deposit).

less solvent required in the final composition [1]	Fp (flow point), amount of ester oil [1]	Wp (wet point), amount of ester oil [1]	dispersion properties compared with commonly used cosmetic ingredients ([1]; in words)	Filters dispersion t0, 1% [2]	Filters dispersion t24, 1% [2]	Filters dispersion t0, 10% [2]	Filters dispersion t24, 10% [2]	dispersion of Titania compared with reference solvents [2]	Compound
about 30%	100.00 g	60.00 g	even better	D	D	D	S/D	even better	CCCCCCCCC(=O)OCC(COC(=O)CCCCCCCC)OC(=O)CCCCCCCC [Glycerol tripelargonate]
–	145.00 g	50.00 g	–	D	S	D	S	–	CC(C)CCCCCCOC(=O)CCCCCC(C)C [Isononyl Isononanoate, reference compound]
–	166.00 g	61.00 g	–	D	S/D	D	S/D	–	CCCCCCCCC(=O)OCC(C)(C)COC(=O)CCCCCCCC [Neopentyl glycol dipelargonate]
–	132.00 g	62.00 g	–	D	D	D	D	even better	CCCCCCCCC(=O)OCC(COC(=O)CCCCCCCC)(COC(=O)CCCCCCCC)COC(=O)CCCCCCCC [Pentaerythritol tetrapelargonate]
